Measured values as given in patent US4689344A, “Long-chain α,ω-dicarboxylic acids and derivatives thereof and pharmaceutical compositions containing them” (Epis S.A., priority 1981, dated 1987).
Where “and” joins values, the source holds several entries; their conditions need not be identical. Identical values can stand only once.

Assays:
serum insulin = test: Serum insulin levels in diabetic Psamomys Obesus; type: in vivo; conditions: non-treated diabetic animals 40-200 uu/ml
[1] = Body weight of Psamomys Obesus; type: in vivo; conditions: Table VII; for Weight gain (gr) average: 0.1% in diet
Description: (§1) Psamomys Obesus were fed "Amrod 935" Purina Chow diet supplemented with 0.1% of the active compound of Example 4, ad libitum, for periods of 80 or 140 days. The biological effects of the active compound in vivo were evaluated as reported in the following experiments.
The above experiment was repeated with groups of young and old Psamomys and the body weight determined.

[2] = tested on: liver total lipid, triglyceride and cholesterol; test: 3H2O incorporation into liver lipids in vivo (total lipid, triglyceride, cholesterol); design: species or system rat; conditions: n = 5
Description: ^3 H2 O incorporation into liver lipids in vico (in μmole/gr liver) was tested in rats fed for 3 days a single daily meal of a high carbohydrate diet containing 0.25% of the active compound of Example 4.
The procedure of Experiment I(b) was repeated for 5 days.
(§2) Rats that have previously been starved for 48 hours, were meal-fed or fed ad libitum a high carbohydrate, fat-free diet for 3-5 days, the diet being supplemented with the active compounds of formula (I) at dosages of 25-250 mg per Kg body weight per day. The biological effects in-vivo were evaluated by following the rate of incorporation of injected radioactive precursors (mainly ^3 H2 O) into liver and adipose tissue lipids and comparing the results observed with those obtained from groups of non-treated rats ("control groups"). Dose-response curves were plotted.

glucose tolerance = test: Glucose tolerance test (GTT) in diabetic Psamomys Obesus; type: in vivo; design: Sum of glucose values at 0, 1, 2, 3h, Treatment / Sum of glucose values at 0, 1, 2, 3h, Elimination of Treatment: unit not given here; conditions: for Sum of glucose values at 0, 1, 2, 3h, Treatment: 0.1% in diet 30-70 days; for Sum of glucose values at 0, 1, 2, 3h, Elimination of Treatment: after return to normal diet
Description: as §1
Six Psamomys Obesus fed Purina Chow diet ad libitum were selected for their diabetic trait by following their glucose tolerance test (GTT). The selected animals were then treated by feeding the same Purina diet supplemented with 0.1% of the active compound of Example 4 for periods varying between 30-70 days. The GTT was followed periodically throughout this period, as well as for 50 more days after the drug-supplemented diet had been replaced with the normal diet. A diagram of the GTT curves obtained with one representative animal is shown in FIG. 6 of the attached drawings. The GTT values for all six animals are shown in the following Table VIII as the sum of the glucose values observed at 0^h, 1^h, 2^h, 3^h.

[3] = tested on: GT of non-diabetic Psamomys; test: Effect on GT of non-diabetic Psamomys; type: in vivo
liver triglyceride = test: Liver triglyceride content of rats fed carbohydrate-rich diet; type: in vivo, rat; conditions: for Reduction in liver triglyceride content (FIG. 4): carbohydrate-rich diet, compared to control group=100%
LD50 in rats (p.o.) = conditions: rat, in vivo, po
serum lipids [4] = test: Serum lipids in rats fed high carbohydrate, fat-free diet; type: in vivo, rat
Description: as §2
The hypolipidemic effect was followed by measuring the triglycerides and cholesterol content in serum of treated rats as compared to non-treated rats.
Rats starved for 48 hours were fed a high carbohydrate, fat-free diet ad libitum for 3 or 5 days, supplemented with the active compound of Example 4 at the proportions shown in the following Table III. The serum lipids were determined in the treated rats and compared to a non-treated control group.
(§3) Rats starved for 48 hours were fed a high carbohydrate, fat-free diet supplemented with 0.25% of the active compound of Example 5 for 3 days ad libitum.

[5] = tested on: diabetes induced by steptozocin; test: Effect on diabetes induced by steptozocin in rats; type: in vivo, rat
[6] = tested on: oxidation of glucose, palmitate or acetate to CO2; test: Oxidation of glucose, palmitate or acetate to CO2 in vivo; design: species or system rat; conditions: rats, additional experiments
serum lipoprotein = test: Serum lipoprotein profile; type: in vivo, rat
Description: as §3

[7] = tested on: neutral fat in liver and adipose tissue and liver cholesterol; test: 3H2O incorporation into neutral fat in liver and adipose tissue and into liver cholesterol in vivo; design: species or system rat
Description: as §2
Incorporation of ^3 H2 O into neutral fat in liver and adipose tissue and into liver cholesterol in vivo.
^3 H2 O incorporation into liver and adipose tissue lipids in vivo was tested in rats fed a high carbohydrate diet ad libitum for three days, supplemented with varying proportions (in percent of the diet) of the active compounds of Examples 4, 5 and 9. ^3 H2 O was then administered to the animals and the rates of incorporation of tritium (in μmole/gr/60 min) into various lipid fractions in liver and adipose tissue were determined and compared to the tritium incorporation under identical conditions in the control groups of rats.

serum lipids [8] = test: Serum triglyceride and cholesterol levels in Psamomys Obesus; type: in vivo; conditions: Table VI, young animals, 0.1% in diet, 140 days, n = 7
Description: as §1
Groups of young and old Psamomys were fed the above described diet for 140 and 80 days, respectively, whereafter the serum triglyceride and cholesterol levels were determined.

CC(C)(CCCCCCCCCCC(C)(C)CC(=O)O)CC(=O)O [Example 4, 3,3,14,14-Tetramethyl-hexadecane-1,16-dioic acid]
Serum insulin levels during the treatment period (serum insulin): lower than 40 uu/ml
Weight gain (gr) average ([1]; old animals, initial 254 ± 52, non-treated gain 11 ± 13): -26 ± 8 gr
Weight gain (gr) average ([1]; young animals, n = 7, initial 92 ± 19, non-treated gain 57 ± 33): 36 ± 12 gr
Weight gain (gr) ([1]; young animals, individual values, non-treated 38, 38, 40, 55, 116): 25 gr and 29 gr and 31 gr and 32 gr and 33 gr and 38 gr and 62 gr
Siblings' weight grain (gr) ([1]; young animals, siblings a, non-treated sibling 55): 25 gr and 33 gr
Siblings' weight grain (gr) ([1]; young animals, siblings b, non-treated sibling 116): 31 gr and 38 gr
3H2O incorporation into liver cholesterol ([2]; Table I, 3 days, single daily meal, 0.25% in high carbohydrate diet, non-treated 2.7 ± 1.1): 0.8 ± 0.2 μmole/gr liver
3H2O incorporation into liver triglyceride ([2]; Table I, 3 days, single daily meal, 0.25% in high carbohydrate diet, non-treated 107 ± 21): 19 ± 2 μmole/gr liver
3H2O incorporation into liver total lipid ([2]; Table I, 3 days, single daily meal, 0.25% in high carbohydrate diet, non-treated 157 ± 34): 47 ± 5 μmole/gr liver
3H2O incorporation into liver cholesterol ([2]; Table II, 5 days, procedure of Experiment I(b), non-treated 2.8 ± 0.8): 1.4 ± 0.4 μmole/gr liver
3H2O incorporation into liver triglyceride ([2]; Table II, 5 days, procedure of Experiment I(b), non-treated 71 ± 12): 20 ± 7 μmole/gr liver
3H2O incorporation into liver total lipid ([2]; Table II, 5 days, procedure of Experiment I(b), non-treated 107 ± 18): 53 ± 13 μmole/gr liver
Correction of the GTT curve (glucose tolerance; 0.1% in diet, 30-70 days): correction of the GTT curve in 5 or 6 test animals
Sum of glucose values at 0, 1, 2, 3h, Treatment (glucose tolerance; Psamomys I, pretreatment 779, 1082): 364
Sum of glucose values at 0, 1, 2, 3h, Treatment (glucose tolerance; Psamomys II, pretreatment 947, 980, 958): 442
Sum of glucose values at 0, 1, 2, 3h, Treatment (glucose tolerance; Psamomys III, pretreatment 790): 296 and 329 and 326
Sum of glucose values at 0, 1, 2, 3h, Elimination of Treatment (glucose tolerance; Psamomys III): 849
Sum of glucose values at 0, 1, 2, 3h, Treatment (glucose tolerance; Psamomys IV, pretreatment 992): 358 and 336 and 465
Sum of glucose values at 0, 1, 2, 3h, Elimination of Treatment (glucose tolerance; Psamomys IV): 1049
Sum of glucose values at 0, 1, 2, 3h, Treatment (glucose tolerance; Psamomys V, pretreatment 867): 434 and 257 and 388
Sum of glucose values at 0, 1, 2, 3h, Elimination of Treatment (glucose tolerance; Psamomys V): 470
Sum of glucose values at 0, 1, 2, 3h, Treatment (glucose tolerance; Psamomys VI, pretreatment 717): 555
Diabetic trait after termination of the treatment (glucose tolerance; after termination of the treatment): revert to their original diabetic trait
Effect on GT of non-diabetic Psamomys [3]: affects neither
Reduction in liver triglyceride content (FIG. 4) (liver triglyceride): reduction in liver triglyceride content
Decrease in the triglyceride content of the liver (liver triglyceride; summary, rats): 30-50%
LD50 (LD50 in rats (p.o.)): > 7000 mg/kg
Serum triglycerides (serum lipids [4]; Table III, 0.06% of diet, ad libitum 3 or 5 days, n = 5, non-treated 41 ± 6): 15 ± 4 mg %
Serum cholesterol (serum lipids [4]; Table III, 0.06% of diet, ad libitum 3 or 5 days, n = 5, non-treated 64 + 10): 38 ± 5 mg %
Serum triglycerides (serum lipids [4]; Table III, 0.15% of diet, ad libitum 3 or 5 days, n = 5, non-treated 41 ± 6): 21 ± 4 mg %
Serum cholesterol (serum lipids [4]; Table III, 0.15% of diet, ad libitum 3 or 5 days, n = 5, non-treated 64 + 10): 32 ± 5 mg %
Serum triglycerides (serum lipids [4]; Table III, 0.25% of diet, ad libitum 3 or 5 days, n = 5, non-treated 41 ± 6): 15 ± 4 mg %
Serum cholesterol (serum lipids [4]; Table III, 0.25% of diet, ad libitum 3 or 5 days, n = 5, non-treated 64 + 10): 31 ±3 mg %
Decrease in serum cholesterol (serum lipids [4]; summary, rats): 50%
Decrease in serum glycerides (serum lipids [4]; summary, rats): up to 60%
Effect on diabetes induced by steptozocin [5]: affects neither
Oxidation of glucose, palmitate or acetate to CO2 in vivo [6]: does not affect
Change in the serum lipoprotein profile (serum lipoprotein; summary, rats): significant change in the serum lipoprotein profile
Inhibition of in vivo incorporation of 3H2O into cholesterol in liver ([7]; 100 mg/Kg body wt/day): 50%
Inhibition of in vivo incorporation of 3H2O into neutral fat (diglycerides, triglycerides) in liver ([7]; 100 mg/Kg body wt/day): 50%
Inhibition of in vivo incorporation of 3H2O into cholesterol in liver ([7]; 250 mg/Kg body wt/day): 80%
Inhibition of in vivo incorporation of 3H2O into neutral fat (diglycerides, triglycerides) in liver ([7]; 250 mg/Kg body wt/day): 80%
In vivo incorporation of 3H2O into neutral fat in adipose tissue ([7]; adipose tissue): block
Serum cholesterol (serum lipids [8]; non-treated 65 ± 7): 46 ± 7 mg %
Serum triglycerides (serum lipids [8]; non-treated 205 ± 29): 62 ± 15 mg %

CC(C)(CCCCCCCCCCCCC(C)(C)CC(=O)O)CC(=O)O [Example 5, 3,3,16,16-Tetramethyl-octadecane-1,18-dioic acid]
Reduction in liver triglyceride content (FIG. 4) (liver triglyceride): reduction in liver triglyceride content
Serum triglycerides (serum lipids [4]; Table IV, 0.25% of diet, 3 days ad libitum, n = 9, non-treated 48 ± 6): 33 ± 3 mg %
Serum cholesterol (serum lipids [4]; Table IV, 0.25% of diet, 3 days ad libitum, n = 12, non-treated 80 ± 12): 40 ± 11 mg %
HDL (VLDL + LDL) (serum lipoprotein; Table V, 0.25% of diet, 3 days, non-treated 1.05): 1.50
LDL cholesterol (serum lipoprotein; Table V, 0.25% of diet, 3 days, non-treated 19.00): 6.00 mg %
VLDL cholesterol (serum lipoprotein; Table V, 0.25% of diet, 3 days, non-treated 23.00): 10.00 mg %
HDL cholesterol (serum lipoprotein; Table V, 0.25% of diet, 3 days, non-treated 43.00): 24.00 mg %

CC(C)(CCCCCCCCCCC(C)(C)C(Br)C(=O)O)C(Br)C(=O)O (centres unmarked) [Example 9, 2,15-Dibromo-3,3,14,14-tetramethyl-hexadecane-1,16-dioic acid]
Reduction in liver triglyceride content (FIG. 4) (liver triglyceride): reduction in liver triglyceride content
